Results: article PMC4562762 (Drug Design, Development and Therapy, 2015)

What was measured:
[1] = Stability in mouse serum at 37°C; assay type: in vitro ADME
HIV-1 LTR / NF-κB = assay: Basal HIV-1 LTR and NF-κB driven luciferase transcription in 293T cells; assay type: cell-based; settings: 2 μM (legend: 1 μM)
HIV-1 LTR = assay: Tat-induced HIV-1 LTR and proviral pNL4-3 luciferase transcription in 293T cells; assay type: cell-based; settings: 2 μM (legend: 1 μM)
CEM-T cells = assay: Cell cycle analysis of CEM-T cells; assay type: cell-based; settings: 1 μM, 24 hours
[2] = Stability in PBS supplemented with 10% BSA; assay type: physicochemical; settings: 37°C
HIV-1 gag and env mRNAs = assay: HIV-1 gag and env mRNA expression in infected CEM-T cells; assay type: cell-based; settings: CEM-T cells infected with HIV-1 Luc, 1 μM, 48 hours
HO-1 = HO-1 mRNA expression; assay type: cell-based; settings: 1 μM, 18S RNA normalization
[3] = system: VSVG-pseudotyped HIV-1 pNL4-3 virus expressing luciferase (HIV-1 Luc); assay: microbe, parasite or virus in culture; assay type: cell-based; settings: Human immunodeficiency virus 1, read-out: IC50, one round HIV-1 infection
in vitro [4] = settings: human
in vitro [5] = settings: IC50, viability of PBMCs, trypan blue, activated PBMCs
[6] = system: HIV-1 reverse transcription; assay: Quantitative PCR for viral DNA; assay type: cell-based
[7] = Stability in serum-free RPMI 1640 media; assay type: in vitro ADME; settings: serum-free RPMI 1640 medium
[8] = CEM-T cells infected with HIV-1 Luc, compared with AZT

COc1cc(/C=C/C(=O)CC(=O)/C=C/c2ccc(O)c(OC)c2)ccc1O [curcumin]
half-life at 50 μM [1]: 10 h | effect on NF-kB driven transcription (HIV-1 LTR / NF-κB): no effect | effect on basal HIV-1 transcription (HIV-1 LTR / NF-κB; HIV-1 LTR luciferase vector): no effect | effect on transcription from proviral pNL4-3 plasmid (HIV-1 LTR): Neither curcumin nor curcumin A at 2 μM concentrations had an effect | effect on Tat-induced HIV-1 transcription (HIV-1 LTR; HIV-1 LTR luciferase + Tat vector): Neither curcumin nor curcumin A at 2 μM concentrations had an effect | effect on cell cycle progression (CEM-T cells): no effect | stabilizing effect of BSA (stability in PBS with 10% BSA) [2]: No stabilization and even a slight increase in degradation | expression of HIV-1 gag and env mRNAs (HIV-1 gag and env mRNAs): significantly reduced | HO-1 expression in PBMCs (HO-1): induced HO-1 | HO-1 expression in CEM-T cells (HO-1; 24 hours): induced HO-1 | IC50 [3]: 700 nM | IC50 (in vitro [4]): 1260 nM | IC50 (in vitro [5]): 35000 nM | effect on HIV-1 reverse transcription (overall) ([6]; 2 μM): inhibited HIV-1 RT | effect on early LTR (early reverse transcription) [6, 8]: inhibited early LTR similarly or better than the established HIV-1 inhibitor, AZT | effect on late LTR formation (late reverse transcription) [6, 8]: no significant effect | half-life [7]: ~1 h
